Read-outs that look alike come from different tables or passages of the source. One block for each compound: values may come before it.
Experiments:
hT2R61 = hT2R61 (Homo sapiens (Human), UniProt P59537); experiment: hT2R panel inhibition, transient HEK293 G16g44, agonist Aristolochic Acid 25 nM; type: cell-based; details: HEK293, compound at 25 μM
Protocol: (§1) Specifically, in order to evaluate the inhibitory selectivity of the Compound C compound, this compound was tested against 22 human T2Rs which were deorphaned by Senomyx. These receptors and the bitter ligands that activate these human T2Rs are reported in earlier patent applications which are incorporated by reference herein. These 22 human T2Rs are hT2R1, 3, 4, 5, 7, 8, 9, 10, 13, 14, 16, 44, 51, 54, 55, 61, 63, 64, 65, 67, 71 and 75. The amino acid and nucleic acid sequences of all of these T2Rs may be found in these earlier patent applications. These human T2Rs were each individually transiently transfected into HEK293 cells that stably express the promiscuous G protein G16g44 and functional assays were effected using these receptors as disclosed in these same patent applications. […] The ligands were used at EC80 concentration levels. The list of bitter ligands utilized and the tested ligand concentrations are contained in Table 5 of this example.
(§2) Relating to the foregoing, FIG. 5 contains experimental results wherein Compound C was tested with different agonist compounds. The inhibition activity is represented by the reduction of receptor activity in the presence of Compound C. […] These 13 hT2Rs are hT2R3, 7, 10, 14, 16, 44, 51, 55, 61, 63, 64, 65, and 71.

hT2R63 = experiment: hT2R panel inhibition, transient HEK293 G16g44, agonist Caffeine 1 mM or Andrographolide 100 μM; type: cell-based, human; details: compound at 25 μM; for screening result against bitter receptor 63: receptor activated to EC80 with the corresponding agonist
Protocol: as §1, §2

hT2R64 = hT2R64 (Homo sapiens (Human), UniProt P59538); experiment: hT2R panel inhibition, transient HEK293 G16g44, agonist Aristolochic Acid 1 μM; type: cell-based; details: HEK293, compound at 25 μM
hT2R64, sequence (P59538 whole entry): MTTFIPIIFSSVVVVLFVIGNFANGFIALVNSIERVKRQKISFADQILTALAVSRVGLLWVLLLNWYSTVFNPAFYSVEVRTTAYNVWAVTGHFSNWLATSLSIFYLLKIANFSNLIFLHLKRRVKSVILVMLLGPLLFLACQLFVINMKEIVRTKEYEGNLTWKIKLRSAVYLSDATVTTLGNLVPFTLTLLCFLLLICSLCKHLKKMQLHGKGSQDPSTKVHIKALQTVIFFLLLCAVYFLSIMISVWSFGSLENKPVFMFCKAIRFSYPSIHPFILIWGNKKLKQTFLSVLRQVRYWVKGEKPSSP
Protocol: as §1, §2

hT2R71 = hT2R71 (Homo sapiens (Human), UniProt P59536); experiment: hT2R panel inhibition, transient HEK293 G16g44, agonist Picric Acid 10 μM; type: cell-based; details: HEK293, compound at 25 μM; receptor activated to EC80 with the corresponding agonist; read-out: screening result against bitter receptor 71
hT2R71, sequence (P59536 whole entry): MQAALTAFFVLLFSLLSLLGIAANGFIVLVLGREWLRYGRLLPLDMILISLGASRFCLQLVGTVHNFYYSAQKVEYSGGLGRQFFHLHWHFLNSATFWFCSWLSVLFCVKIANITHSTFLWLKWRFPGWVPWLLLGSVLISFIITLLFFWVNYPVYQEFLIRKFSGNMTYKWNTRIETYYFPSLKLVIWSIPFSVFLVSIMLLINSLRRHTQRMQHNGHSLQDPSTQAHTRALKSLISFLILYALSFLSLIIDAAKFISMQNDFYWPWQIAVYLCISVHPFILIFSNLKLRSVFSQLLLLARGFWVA
Protocol: as §1, §2

hT2R14 [1] = molecular target: T1, hT2R14 (Homo sapiens (Human), UniProt Q9NYV8); experiment: hT2R panel inhibition, transient HEK293 G16g44, agonist Aristolochic Acid 2 μM; type: cell-based; details: HEK293, compound at 25 μM
T1 sequence (Q9NYV8 whole entry): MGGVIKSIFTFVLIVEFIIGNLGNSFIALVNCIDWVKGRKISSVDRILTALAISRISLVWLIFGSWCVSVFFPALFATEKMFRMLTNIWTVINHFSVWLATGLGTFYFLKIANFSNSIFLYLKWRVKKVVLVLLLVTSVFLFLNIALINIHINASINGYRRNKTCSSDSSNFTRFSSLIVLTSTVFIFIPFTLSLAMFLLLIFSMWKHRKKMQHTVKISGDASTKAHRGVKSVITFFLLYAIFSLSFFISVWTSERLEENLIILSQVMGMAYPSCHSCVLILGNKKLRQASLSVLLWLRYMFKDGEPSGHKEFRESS
Protocol: as §1

hT2R44 = experiment: hT2R panel inhibition, transient HEK293 G16g44, agonist Denatonium 0.5 μM; type: cell-based, human; details: compound at 25 μM; receptor activated to EC80 with the corresponding agonist
Protocol: as §1, §2

hT2R14 [2] = molecular target: T1, hT2R14; experiment: hT2R14 antagonist high-throughput FLIPR assay, stable cell line with G16g44, agonist aristolochic acid; type: cell-based
Protocol: The inventors also used the automated fluorimetric […] system FLIPR using a slightly different protocol. A HEK293 cell line stably expressing G16gust44 was transfected with a hT2R expression plasmid, 24 hours later, the cells are loaded and analyzed on FLIPR.
After a ligand is identified for a particular hT2R, a HEK293 cell line stably expressing both the hT2R and G16gust44 are generated, facilitating future screening assays to identify other ligands that activate the particular hT2R or which modulate (block or enhance) the activation of this hT2R by another bitter ligand such as a bitter compound contained in coffee. This avoids the need for transient transfection.
To identify antagonists, cell lines stably expressing hT2R8 and hT2R14, respectively, together with the promiscuous chimeric G16g44 protein were generated as described in previous patent applications. A high-throughput assay was established using the stable cell lines and FLIPR (Fluorescent Imaging Plate Reader). An agonist of hT2R8 or hT2R14 was used to activate the receptors up to 70-80% of their respective maximal activity. For hT2R8, the agonist used was andrographolide (200 […]); for hT2R14, it was aristolochic acid (3 μM). To identify antagonists, compounds with diverse chemical structures were added together with the agonist.

[3] = receptor activated to EC80 with the corresponding agonist, read-out: screening result against bitter receptor 61
[4] = receptor activated to EC80 with the corresponding agonist, read-out: screening result against bitter receptor 64
[5] = read-out: IC50 on hT2R14 bitter receptor
[6] = receptor activated to EC80 with agonist, read-out: inhibition of bitter receptor 14

hT2R61, sequence (P59537 whole entry): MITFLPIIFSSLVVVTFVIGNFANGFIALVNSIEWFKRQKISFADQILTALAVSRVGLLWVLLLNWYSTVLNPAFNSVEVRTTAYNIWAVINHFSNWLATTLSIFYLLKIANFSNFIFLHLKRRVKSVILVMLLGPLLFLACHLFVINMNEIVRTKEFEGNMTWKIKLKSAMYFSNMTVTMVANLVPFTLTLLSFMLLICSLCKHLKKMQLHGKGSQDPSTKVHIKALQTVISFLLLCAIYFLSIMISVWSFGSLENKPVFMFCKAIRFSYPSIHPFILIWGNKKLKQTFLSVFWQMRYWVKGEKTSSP

SMILES: N#C/C(=C\c1ccco1)C(=O)Nc1nnc(-c2ccccc2)s1 [Example 6-2, (E)-2-cyano-3-(furan-2-yl)-N-(5-phenyl-1,3,4-thiadiazol-2-yl)acrylamide]
IC50 (hT2R14 [2]; [5]): 499 nM
inhibition at 25 µM (hT2R14 [1]; [6]): > 80%
inhibition at 25 µM (hT2R61; receptor activated to EC80 with agonist, read-out: inhibition of bitter receptor 61): 40 to 60%
inhibition of bitter receptor 63 (hT2R63; receptor activated to EC80 with agonist): + (20% to 40% inhibition = +)
inhibition at 25 µM (hT2R64; receptor activated to EC80 with agonist, read-out: inhibition of bitter receptor 64): 20 to 40%

SMILES: CCN(C)C(=O)CSc1nc(C)nc2c1c(=O)n(C)c(=O)n2C [Example 6-22, N-ethyl-N-methyl-2-(2,6,8-trimethyl-5,7-dioxo-5,6,7,8-tetrahydropyrimido[4,5-d]pyrimidin-4-ylthio)acetamide]
IC50 (hT2R14 [2]; Table D, read-out: hT2R14 IC50): 861 nM

SMILES: Cc1ccc(CN(Cc2ccccc2)S(=O)(=O)c2ccc(C(=O)O)cc2)cc1 [Example 5-132, 4-(N-benzyl-N-(4-methylbenzyl)sulfamoyl)benzoic acid]
IC50 (hT2R14 [2]; Table C, read-out: hT2R14 IC50): 5390 nM

SMILES: O=C(O)c1ccc(S(=O)(=O)N(Cc2ccccc2)Cc2cccc(F)c2)cc1 [Example 5-139, 4-(N-benzyl-N-(3-fluorobenzyl)sulfamoyl)benzoic acid]
IC50 (hT2R14 [2]; Table C, read-out: hT2R14 IC50): 2310 nM

SMILES: Cc1nc(SCC(=O)N2CCOCC2)c2c(=O)n(C)c(=O)n(C)c2n1 [Example 6-25, 1,3,7-trimethyl-5-(2-morpholino-2-oxoethylthio)pyrimido[4,5-d]pyrimidine-2,4(1H,3H)-dione]
IC50 (hT2R14 [2]; Table D, read-out: hT2R14 IC50): 1010 nM

SMILES: CSc1ccc(CN(Cc2ccccc2)S(=O)(=O)c2ccc(C(=O)O)cc2)cc1 [Example 5-138, 4-(N-benzyl-N-(4-(methylthio)benzyl)sulfamoyl)benzoic acid]
IC50 (hT2R14 [2]; Table C, read-out: hT2R14 IC50): 2460 nM

SMILES: COc1ccccc1CN(Cc1ccccc1)S(=O)(=O)c1ccc(C(=O)O)cc1 [Example 5-133, 4-(N-benzyl-N-(2-methoxybenzyl)sulfamoyl)benzoic acid]
IC50 (hT2R14 [2]; Table C, read-out: hT2R14 IC50): 5060 nM

SMILES: Cc1cccc(C)c1NS(=O)(=O)c1ccc2c(c1)c(=O)n(C)c(=O)n2C [Example 6-8, N-(2,6-dimethylphenyl)-1,3-dimethyl-2,4-dioxo-1,2,3,4-tetrahydroquinazoline-6-sulfonamide]
inhibition at 25 µM (hT2R14 [1]; [6]): 20 to 40%

SMILES: COc1cc(/C=C2\SC(=S)N(CCC(=O)O)C2=O)cc(OC)c1 [Example 6-13, (Z)-3-(5-(3,5-dimethoxybenzylidene)-4-oxo-2-thioxothiazolidin-3-yl)propanoic acid]
IC50 (hT2R14 [2]; Table D, read-out: hT2R14 IC50): 5380 nM

SMILES: O=C(O)c1ccc(S(=O)(=O)N(Cc2ccccc2)Cc2cccc(Cl)c2)cc1 [Example 5-142, 4-(N-benzyl-N-(3-chlorobenzyl)sulfamoyl)benzoic acid]
IC50 (hT2R14 [2]; Table C, read-out: hT2R14 IC50): 4290 nM

SMILES: O=C(O)c1ccc(S(=O)(=O)N(Cc2ccccc2)Cc2ccc3c(c2)OCO3)cc1 [Example 5-148, 4-(N-(benzo[d][1,3]dioxol-5-ylmethyl)-N-benzylsulfamoyl)benzoic acid]
IC50 (hT2R14 [2]; Table C, read-out: hT2R14 IC50): 2170 nM

More lines, main results first:

inhibition at 25 µM (hT2R61; [3]): > 80%
inhibition at 25 µM (hT2R64; [4]): 20 to 40%
inhibition at 25 µM (hT2R71): 20 to 40%
SMILES: COc1ccc(CN(Cc2ccc(C(=O)O)cc2)S(=O)(=O)c2ccc(C(=O)O)cc2)cc1 [Example 5-38, 4-((4-carboxy-N-(4-methoxybenzyl)phenylsulfonamido)methyl)-benzoic acid]
screening result against bitter receptor 63 (hT2R63): ++++ (80% or greater inhibition = ++++)

inhibition at 25 µM (hT2R14 [1]; receptor activated to EC80 with the corresponding agonist, read-out: screening result against bitter receptor 14): 20 to 40%
inhibition at 25 µM (hT2R61; [3]): 60 to 80%
SMILES: COc1ccc(CN(Cc2ccncc2)S(=O)(=O)c2ccc(C(=O)O)cc2)cc1 [Example 5-86, 4-(N-(4-methoxybenzyl)-N-(pyridin-4-ylmethyl)sulfamoyl)benzoic acid]
screening result against bitter receptor 44 (hT2R44): + (20% to 40% inhibition = +)
screening result against bitter receptor 63 (hT2R63): +++ (60% to 80% inhibition = +++)

inhibition at 25 µM (hT2R64; [4]): 40 to 60%
SMILES: COc1ccc(CN(C)S(=O)(=O)c2ccc(C(=O)O)cc2)cc1 [Example 5-29, 4-(N-(4-methoxybenzyl)-N-methylsulfamoyl)benzoic acid]
screening result against bitter receptor 63 (hT2R63): +++ (60% to 80% inhibition = +++)

IC50 (hT2R14 [2]; Table C, read-out: hT2R14 IC50): 2820 nM
SMILES: CCOC(=O)C1CCC(CN(Cc2ccccc2Cl)S(=O)(=O)c2ccc(C)cc2)CC1 (stereo not drawn) [Example 5-117, ethyl 4-((N-(2-chlorobenzyl)-4-methylphenylsulfonamido)methyl) cyclohexanecarboxylate]

inhibition at 25 µM (hT2R61; [3]): > 80%
inhibition at 25 µM (hT2R64; [4]): 20 to 40%
inhibition at 25 µM (hT2R71): 20 to 40%
SMILES: COc1ccc(CN(Cc2cccc(C(=O)O)c2)S(=O)(=O)c2ccc(C(=O)O)cc2)cc1 [Example 5-82, 3-((4-carboxy-N-(4-methoxybenzyl)phenylsulfonamido)methyl) benzoic acid]
screening result against bitter receptor 63 (hT2R63): ++++ (80% or greater inhibition = ++++)

IC50 (hT2R14 [2]; Table C, read-out: hT2R14 IC50): 2880 nM
SMILES: COc1ccc2c(c1)C(c1ccccc1)N(S(=O)(=O)c1ccc(C(=O)O)cc1)CC2 (stereo not drawn) [Example 5-163, 4-(7-methoxy-1-phenyl-3,4-dihydroisoquinolin-2(1H)-ylsulfonyl)benzoic acid]

IC50 (hT2R14 [2]; Table C, read-out: hT2R14 IC50): 36 nM
SMILES: COc1cccc(CN(CC2CCC(C(=O)O)CC2)S(=O)(=O)c2ccc(C)cc2)c1 (stereo not drawn) [Example 5-128, 4-((N-(3-methoxybenzyl)-4-methylphenylsulfonamido)methyl) cyclohexanecarboxylic acid]

IC50 (hT2R14 [2]; Table C, read-out: hT2R14 IC50): 92 nM
SMILES: COc1ccc(S(=O)(=O)N(Cc2ccc(F)cc2)CC2CCC(C(=O)O)CC2)cc1 (stereo not drawn) [Example 5-123, 4-((N-(4-fluorobenzyl)-4-methoxyphenylsulfonamido)methyl) cyclohexanecarboxylic acid]

IC50 (hT2R14 [2]; Table C, read-out: hT2R14 IC50): 9620 nM
SMILES: COc1ccc2c(c1)CCN(S(=O)(=O)c1ccc(C(=O)O)cc1)C2c1ccccc1 (stereo not drawn) [Example 5-162, 4-(6-methoxy-1-phenyl-3,4-dihydroisoquinolin-2(1H)-ylsulfonyl)benzoic acid]

IC50 (hT2R14 [2]; [5]): 678 nM
SMILES: COc1ccc(CN(Cc2ccccc2)S(=O)(=O)c2ccc(C(=O)O)cc2)cc1OC [Example 5-39, 4-(N-benzyl-N-(3,4-dimethoxybenzyl)sulfamoyl)benzoic acid]

inhibition at 25 µM (hT2R64; [4]): 20 to 40%
SMILES: COc1ccc(CN(Cc2ccccc2)S(=O)(=O)c2ccccc2C(=O)O)cc1 [Example 5-60, 2-(N-benzyl-N-(4-methoxybenzyl)sulfamoyl)benzoic acid]

IC50 (hT2R14 [2]; Table C, read-out: hT2R14 IC50): 5320 nM
SMILES: COc1ccc(CN(Cc2ccccc2C)S(=O)(=O)c2ccc(C(=O)O)cc2)cc1 [Example 5-129, 4-(N-(4-methoxybenzyl)-N-(2-methylbenzyl)sulfamoyl)benzoic acid]

IC50 (hT2R14 [2]; Table D, read-out: hT2R14 IC50): 2910 nM
SMILES: N#C/C(=C\c1ccc2c(c1)OCO2)C(=O)Nc1nnc(-c2ccccc2)s1 [Example 6-14, (E)-3-(benzo[d][1,3]dioxol-5-yl)-2-cyano-N-(5-phenyl-1,3,4-thiadiazol-2-yl)acrylamide]

IC50 (hT2R14 [2]; Table D, read-out: hT2R14 IC50): 935 nM
SMILES: Cc1c(F)cccc1NS(=O)(=O)c1ccc2c(c1)c(=O)n(C)c(=O)n2C [Example 6-18, N-(3-fluoro-2-methylphenyl)-1,3-dimethyl-2,4-dioxo-1,2,3,4-tetrahydroquinazoline-6-sulfonamide]

IC50 (hT2R14 [2]; Table C, read-out: hT2R14 IC50): 2570 nM
SMILES: CCOC(=O)C1CCC(CN(Cc2cccc(Br)c2)S(=O)(=O)c2ccc3c(c2)OCCO3)CC1 (stereo not drawn) [Example 5-116, ethyl 4-((N-(3-bromobenzyl)-2,3-dihydrobenzo[b][1,4]dioxine-6-sulfonamido)methyl) cyclohexanecarboxylate]

IC50 (hT2R14 [2]; Table C, read-out: hT2R14 IC50): 1260 nM
SMILES: COc1ccc(CN(Cc2ccc(F)cc2F)S(=O)(=O)c2ccc(C(=O)O)cc2)cc1 [Example 5-160, 4-(N-(2,4-difluorobenzyl)-N-(4-methoxybenzyl)sulfamoyl)benzoic acid]

IC50 (hT2R14 [2]; Table C, read-out: hT2R14 IC50): 3570 nM
SMILES: COc1ccc2c(c1)-c1ccccc1CN(S(=O)(=O)c1ccc(C(=O)O)cc1)C2 [Example 5-158, 4-(2-methoxy-5H-dibenzo[c,e]azepin-6(7H)-ylsulfonyl)benzoic acid]
